According to EP0732399A2 (CEPHALON, INC., priority 1990, dated 1991):
pKi: −log10 of the molar value. Where “and” joins values, the source holds several entries; their conditions need not be identical. Equal entries are not always repeated. Entries after “also recorded” stand apart in the source; their conditions may differ. Where two headings read alike, the source gives them in different places. Blank lines part the entries; values can stand above or below the molecule they belong to. Square brackets hold non-standard residues; d marks the D form. Peptide text beside a SMILES is read from it. * marks the point of attachment. Sta = CC(C)C[C@H](N)[C@@H](O)CC(=O)O; Isovaleryl = CC(C)CC(=O)*; MeOSuc = COC(=O)CCC(=O)*; CH2Cl = ClC*

Tests used:
chymase [1] = test: human brain chymase purified from human cerebral cortex; details: 37°C
chymase [2] = test: purified rat brain chymase; details: 37°C
[3] = tested on: human brain multicatalytic protease; type: biochemical; details: qualitative, no concentration stated
Procedure: (§1) During the various protease purification steps, protease activity of all fractions was measured using chromogenic or fluorogenic peptide analogs as substrates. Other methods are available, known to those skilled in the art. One specific example of an activity measurement is described here. Protease activity assays were performed in 96 well microtiter plates, in a total volume of 0.2 mls. Substrates were prepared as 10-20X concentrated stock solutions in DMSO. Therefore, each reaction contained 5-10% DMSO. Reactions were initiated by addition of protease-containing samples to wells already containing substrates, and were maintained at 37°C. Control wells received either protease without substrate, or substrate without protease. The release of reporter moities by proteolytic cleavage was followed as a function of time by either spectrophotometry (e.g., for pNa substrates, change in absorbance with time at 405 nm) or fluorimetry (e.g., for AMC substrates, change in fluorescence with time using excitation at 390 nm and emission at 460 nm). Maximum velocity of reactions was determined while substrate hydrolysis increased linearly as a function of time.
Human cerebral cortex (courtesy National Neurological Research Bank, Los Angeles, CA.) was obtained at autopsy and stored at -70°C until use. All procedures were conducted at 4 °C unless noted otherwise. […] Triton X-100 was added to 0.5%, the homogenate was stirred for 1 hr., then centrifuged at 40,000 x g for 1 hr. The supernatant, containing the multicatalytic protease, was dialyzed against 20 mM Tris-HCl (pH 8.0),1% glycerol. The following day, the dialysate was loaded on a column (150 ml bed volume) of DEAE-Sepharose Fast Flow (Pharmacia, Piscataway, N.J.) equilibrated in the dialysis buffer. Unbound material was removed with ∼300 mls dialysis buffer, then bound material was eluted with a linear NaCl gradient from 0 mM to 400 mM (1.5 liters total). Fractions of 15 ml were collected and assayed for multicatalytic protease activity (see below).

chymase [4] = biological target: T1, chymase (Rattus norvegicus, UniProt P09650); test: Inhibition of purified brain chymase (pNa substrate hydrolysis); type: biochemical
T1 construct: Starting from 18g rat brain, approximately 10µg homogeneous chymase was obtained; from tissue; host or cells: rat forebrain (5-7 day old pups)
T1 sequence (P09650 21-260): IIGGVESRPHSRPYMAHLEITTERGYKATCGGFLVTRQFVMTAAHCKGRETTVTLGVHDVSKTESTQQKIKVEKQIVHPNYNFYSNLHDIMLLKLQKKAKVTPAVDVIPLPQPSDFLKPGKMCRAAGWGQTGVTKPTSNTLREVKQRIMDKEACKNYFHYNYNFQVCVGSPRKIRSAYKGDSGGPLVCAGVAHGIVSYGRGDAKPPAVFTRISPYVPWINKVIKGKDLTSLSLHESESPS
Procedure: as §1

chymotrypsin [5] = test: chymotrypsin; details: 37°C
cathepsin G [6] = test: cathepsin G; details: 37°C
[7] = high salt extract preparation (1 M MgCl2) of human brain samples
multicatalytic protease [8] = test: multicatalytic protease purified from human brain; details: 37°C
cathepsin G [9] = test: cathepsin G (Fig. 6 panel C); details: 37°C
chymotrypsin [10] = test: chymotrypsin (Fig. 6 panel B); details: 37°C
chymase [11] = test: Purified chymase; details: rat, room temperature, up to 48 hrs
chymotrypsin [12] = test: Substrate cleavage by chymotrypsin; type: biochemical
Procedure: as §1
(§2) Contrary to expectation, not all chymotrypsin-like proteases were able to cleave MeOSuc-Glu-Val-Lys-Met-pNa (Figure 6; EVKM using the one letter amino acid code). […]

human brain chymase = biological target: T2, human brain chymase (Homo sapiens, UniProt P23946)
T2 sequence (P23946 22-247): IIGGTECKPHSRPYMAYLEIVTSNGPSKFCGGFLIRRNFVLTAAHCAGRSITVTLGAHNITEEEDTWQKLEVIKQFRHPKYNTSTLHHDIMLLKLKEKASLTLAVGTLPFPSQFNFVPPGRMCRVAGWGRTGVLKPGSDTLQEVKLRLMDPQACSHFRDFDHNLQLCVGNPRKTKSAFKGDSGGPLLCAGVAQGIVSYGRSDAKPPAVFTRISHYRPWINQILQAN
Text: Samples obtained post-mortem from human cerebral cortex (courtesy of the National Neurological Research Bank) were fractionated as described above for preparation of rat brain chymase. […] Protease was further purified on a heparin-Sepharose column in a manner similar to purification of rat brain chymase. […] The enzyme bound to the column in 0.4 M NaCl and was eluted by increasing the NaCl concentration to 0.7-0.9 M.
Next, chymase was purified using a chymase inhibitor coupled to resin, lima bean trypsin inhibitor-agarose (Sigma, St. Louis, MO.). […] Chymase-containing fractions from the heparin eluate were pooled, concentrated to 10 ml, and loaded on a 1 ml bed volume of lima bean trypsin inhibitor-agarose. The column was washed with Hepes buffer containing 0.5 M NaCl (5 vol), then with water (5 vol). Chymase was eluted with 2 mM HCl, and was immediately neutralized with Tris-HCl (0.2 M final concentration, pH 8.0) containing 0.5 M NaCl.

chymase [13] = biological target: T1, chymase; test: Substrate cleavage by brain chymase; type: biochemical
Procedure: as §1

multicatalytic protease [14] = biological target: T3, multicatalytic protease (Homo sapiens, UniProt P28074); test: Substrate cleavage by multicatalytic protease; type: biochemical
T3 construct: Human cerebral cortex (courtesy National Neurological Research Bank, Los Angeles, CA.) was obtained at autopsy; from tissue; host or cells: human cerebral cortex, post mortem
Procedure: as §1
Human cerebral cortex (courtesy National Neurological Research Bank, Los Angeles, CA.) was obtained at autopsy and stored at -70°C until use. All procedures were conducted at 4 °C unless noted otherwise. […]

cathepsin G [15] = biological target: T4, cathepsin G (Homo sapiens, UniProt P08311); test: Substrate cleavage by cathepsin G; type: biochemical
T4 sequence (P08311 21-255): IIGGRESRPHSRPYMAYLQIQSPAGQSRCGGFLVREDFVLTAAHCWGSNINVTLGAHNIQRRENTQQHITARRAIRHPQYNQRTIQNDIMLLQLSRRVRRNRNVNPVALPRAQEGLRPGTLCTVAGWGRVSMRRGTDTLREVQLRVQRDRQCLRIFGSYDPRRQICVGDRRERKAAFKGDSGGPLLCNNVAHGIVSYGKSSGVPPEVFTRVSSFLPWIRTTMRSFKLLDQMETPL
Procedure: as §1, §2

Molecule: Suc-Ala-Ala-Pro-Phe-pNa
- cleaved bond (chymase [1]): Phe-pNa
- cleaved bond (chymase [2]): Phe-pNa

Molecule: c1cnc2c(c1)ccc1cccnc12 [o-phenanthroline]
- inhibition of multicatalytic protease activity [3]: not

Molecule: COC(=O)CCC(=O)N[C@@H](CCC(=O)O)C(=O)N[C@H](C(=O)N[C@@H](CCCCN)C(=O)N[C@@H](Cc1ccccc1)C(=O)CCl)C(C)C (MeOSuc-EVKF-CH2Cl)
- pKi (chymase [4]; Ki): > 7.70

Molecule: MeOSuc-Ala-Ala-Pro-Met-pNa
- cleaved bond (chymotrypsin [5]): Met-pNa
- cleaved bond (cathepsin G [6]): Met-pNa
- cleaved bond (chymase [2]): Met-pNa

Molecule: CC(=O)N[C@@H](CC(C)C)C(=O)N[C@@H](CC(C)C)C(=O)N[C@H](C=O)CCCNC(=N)N [leupeptin]
- inhibition of multicatalytic protease activity [3]: not

Molecule: CC(C)CC(=O)N[C@H](C(=O)N[C@H](C(=O)N[C@@H](CC(C)C)[C@@H](O)CC(=O)N[C@@H](C)C(=O)N[C@@H](CC(C)C)[C@@H](O)CC(=O)O)C(C)C)C(C)C [pepstatin] (Isovaleryl-VV[Sta]A[Sta]-OH)
- inhibition of multicatalytic protease activity [3]: not

Molecule: CC(C)C[C@H](NC(=O)[C@@H](NC(=O)N[C@@H](Cc1ccccc1)C(=O)O)[C@@H]1CCN=C(N)N1)C(=O)N[C@H](C=O)Cc1ccccc1 [chymostatin]
- inhibition of multicatalytic protease activity [3]: inhibition

Molecule: O=S(=O)(F)Cc1ccccc1 [phenylmethylsulfonylfluoride]
- inhibition of multicatalytic protease activity [3]: not

Molecule: methoxysuccinyl-glutamyl-valyl-lysyl-methionine-p-nitroanili de [MeOSuc-Glu-Val-Lys-Met-pNa]
- substrate cleavage by chymotrypsin (chymotrypsin [12]): essentially without effect
- substrate hydrolysis by human brain chymase (human brain chymase): hydrolyzed
- substrate cleavage by chymase (chymase [13]): readily degraded
- substrate cleavage by multicatalytic protease (multicatalytic protease [14]): readily degraded; also recorded: unusual ability to cleave
- substrate cleavage by cathepsin G (cathepsin G [15]): essentially without effect

More lines, now with the values ahead:

- cleaved bond [7]: Phe-pNa
Molecule: MeOSuc-Ala-Ala-Pro-Phe-pNa

- cleaved bond (multicatalytic protease [8]): Met-pNa
- not cleaved (cathepsin G [9]): essentially without effect
- cleaved bond (chymase [1]): Met-pNa
- cleaved bond (chymase [2]): Met-pNa
- not cleaved (chymotrypsin [10]): essentially without effect
Molecule: MeOSuc-Glu-Val-Lys-Met-pNa

- cleaved bond (chymase [2]): Phe-pNa
Molecule: MeOSuc-Glu-Val-Lys-Phe-pNa

- cleaved bond (chymase [11]): Met596-Asp597, 45 minutes
Molecule: Glu-Val-Lys-Met-Asp-Ala-Glu-Phe-Arg-His-Asp-Ser-Gly-Tyr-Glu-Val-His-His-Gln

- pKi (chymase [4]; read-out: Ki): > 7.70 and 7.82
Molecule: COC(=O)CCC(=O)N[C@@H](CCC(=O)O)C(=O)N[C@H](C(=O)N[C@@H](CCCCN)C(=O)N[C@H](C=O)Cc1ccccc1)C(C)C [MeOSuc-Glu-Val-Lys-Phe-al, MeOSuc-Glu-Val-Lys-Phenylalaninal] (MeOSuc-EVKF-aldehyde)
